Measured values published in paper PMC9139161, “Phenolics from Chrozophora oblongifolia Aerial Parts as Inhibitors of α-Glucosidases and Advanced Glycation End Products: In-Vitro Assessment, Molecular Docking and Dynamics Studies” (Biology, 2022).
Where “and” joins values, the source holds several entries; their conditions need not be identical. Equal values may be shown once.

Key:
[1] = target: T1, porcine pancreatic lipase type II (Sus scrofa, UniProt P00591); assay: Pancreatic lipase inhibition (p-NPD substrate); assay type: biochemical; details: for IC50: porcine pancreatic lipase, p-NPD substrate, read-out: Pancreatic lipase IC50 (Mean ± SE)
T1 construct: purchased sigma Aldrich L3126
T1 sequence (P00591 1-450): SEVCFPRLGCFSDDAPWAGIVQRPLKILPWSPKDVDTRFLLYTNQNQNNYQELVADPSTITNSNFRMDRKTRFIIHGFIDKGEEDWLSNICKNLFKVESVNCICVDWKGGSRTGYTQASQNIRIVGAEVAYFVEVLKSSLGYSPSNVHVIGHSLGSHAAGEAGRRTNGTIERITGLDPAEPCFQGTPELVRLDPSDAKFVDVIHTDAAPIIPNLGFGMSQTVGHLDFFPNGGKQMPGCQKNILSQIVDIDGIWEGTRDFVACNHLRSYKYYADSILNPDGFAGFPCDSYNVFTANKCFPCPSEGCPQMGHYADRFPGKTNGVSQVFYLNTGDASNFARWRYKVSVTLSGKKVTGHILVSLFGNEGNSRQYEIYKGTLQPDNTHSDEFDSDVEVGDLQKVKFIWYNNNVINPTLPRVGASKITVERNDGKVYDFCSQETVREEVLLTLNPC
Experimental: The inhibition of pancreatic lipase activity was assessed using p-nitrophenyl dodecanoate (p-NPD, Sigma-Aldrich, St. Louis, MO, USA cat#N0252) as substrate and porcine pancreatic lipase type II (PPL, sigma Aldrich, cat#L3126) which was described previously with slight modification. Solutions of the provided compounds were prepared in final concentrations of 50 µM in 5% DMSO. […] In a Tris-HCl buffer (100 mM, pH 8); 50 μL of PPL (1 mg/mL) was incubated with 25 μL of samples/blank for 10 min at 37 °C. Then, 10 μL of solution p-NPD (10 mM, in isopropanol) was added followed by dilution of the final volume to 200 μL with Tris-HCl buffer. The mixture was incubated for 20 min at 37 °C and absorbance was then measured at 405 nm on a TECAN microplate reader (Männedorf, Switzerland). After that, the percentage of lipase inhibition was assessed (Supplementary Table S1 and Figure S1).

[2] = Ferric reducing antioxidant power (FRAP) assay; details: ascorbic acid equivalents; mean ± SD, n = 3
Experimental: Isolated compounds were dissolved in DMSO to prepare a 0.5 mg/mL concentration, meanwhile, the positive control (ascorbic acid) was used to prepare a stock solution of 1000 µM in water; from which seven concentrations were prepared including 15.625, 31.25, 62.5, 125, 250 and 500 µM to construct the dose-response curve. The method of the assay depends on the reduction of Fe^3+ to Fe^2+, which is chelated by 2,4,6-tris(2-pyridyl)-s-triazine (TPTZ) to form Fe^2+-TPTZ complex which is known as FRAP (ferric reducing antioxidant power). Briefly, 190 μL of FRAP reagent (300 mM sodium acetate buffer pH 3.6, 10 mM TPTZ, and 20 mM ferric chloride, (10:1:1)) was incubated in the dark with 10 μL of the isolated compound in a 96-well plate for 30 min at 37 °C and absorbance was determined at 620 nm using microplate reader (Tecan, San Jose, CA, USA). Data are represented as means (n = 3) ± SD and the antioxidant effect of the extract was calculated as µM Ascorbic acid equivalents by substitution in the linear regression equation (Supplementary Figure S3).

[3] = test system: advanced glycation end products (AGEs) formation, arginine-methylglyoxal model; assay: AGEs formation inhibition, arginine-methylglyoxal assay; assay type: biochemical; details: AGEs fluorescence, 72 h, 37 °C; read-out: Arginine-Methylglyoxal Model IC50 (Mean ± SE)
Experimental: The isolated compounds were prepared at final concentrations of 500 µM in DMSO in the BSA-fructose assay, and 1000 µM in all other AGEs assays. Compounds that exceeded 50% inhibition at this concentration were serially diluted to determine their IC50. All tests were conducted using quercetin (positive control).
The determination of the inhibitory effect of the isolated compounds on the formation of AGEs in the arginine methylglyoxal model was used as described previously with slight modification. Briefly, in black 96-microwell plates, a sample was incubated for 72 h at 37 °C in the dark with methylglyoxal (53.3 mM, in distilled water) and 106.6 mM arginine (in 200 mM phosphate buffer, pH 7.4, with 0.02% sodium azide), (1:1:1 v/v/v). On a microplate reader (Fluostar Omega/BMG Labtech/Germany), fluorescent AGEs were detected using excitation and emission wavelengths of 355 nm and 460 nm, respectively. Triplicates of all experiments were performed.

[4] = Oxygen radical absorbance capacity (ORAC) assay; details: Trolox equivalents
Experimental: Isolated compounds were dissolved in DMSO to prepare a concentration of 0.25 mg/mL, meanwhile, the positive control (Trolox) was used to prepare a stock solution of 1 mM in MeOH; from which nine concentrations were prepared including 400, 300, 200, 150, 100, 75, 50, 25, and 12.5 µM to construct the dose-response curve. The assay was carried out as previously reported, with minor modifications. Briefly, 12.5 µL of the prepared sample(s) were incubated with 75 µL fluoresceine (10 nM) for 30 min at 37 °C. Measuring fluorescence was performed (520 EM, 485 EX, nm) for 3 cycles (90 s cycle time) for background measurement (Supplementary Figure S5). Subsequently, to each well, freshly-made AAPH (2,2′-azobis(2-amidinopropane) dihydrochloride) (12.5 µL, 240 mM) was immediately added. Measuring fluorescence (520 EM, 485 EX, nm) was maintained (90 s × 85 cycles) for 2.5 h (Supplementary Figure S5). The antioxidant potential (µM trolox equivalents) was estimated by substituting in the linear-regression equation.

[5] = ABTS assay; details: ascorbic acid equivalents; mean ± SD, n = 3
Experimental: DMSO was used for the preparation of 0.5 mg/mL concentrations of isolated compounds, meanwhile, the positive control (ascorbic acid) was used to prepare a stock solution of 1000 µM in water; from which seven concentrations were prepared including 7.812, 15.625, 31.25, 62.5, 125, 250 and 500 µM to construct the concentration-response curve (Supplementary Data Figure S2). The activity of the tested compounds to scavenge the free radicals of ABTS (2,2′-azino-bis (3-ethylbenzothiazoline-6-sulfonic acid)) was assessed according to the methodology reported previously with slight modifications.
Five milliliters of aqueous solution (7 mM) of ABTS was mixed with 88 µL potassium persulfate (140 mM) and the mixture was kept in the dark for 16 h to produce ABTS radical cation (ABTS^•+). Then methanol was added to the reaction mixture to dilute the formed ABTS^•+ solution to an absorbance of 0.700 (1:50) at 690 nm.
Ten microliters of the tested compound were incubated with 190 μL of ABTS^•+ solution in a 96-well plate for thirty minutes in the dark and the absorbance was measured later using a microplate reader (TECAN, Männedorf, Switzerland) at 690 nm. Data are represented as means (n = 3) ± SD and the antioxidant effect of the tested compounds was calculated as µM Ascorbic acid equivalents by substitution in the linear regression equation (Supplementary Figure S2).

Row | SMILES | IC50 [1] [µM] | Pancreatic lipase inhibitory effect (in words) ([1]; till 50 μM concentration) | IC50 [3] [µM] | inhibition at 50 µM [1] [%] | FRAP [2] | ORAC assay [4] | ABTS [5] [mM AAE/mg]
1 | O=C(OC[C@H]1O[C@H](OC(=O)c2cc(O)c(O)c(O)c2)[C@H](O)[C@@H](OC(=O)c2cc(O)c(O)c(O)c2)[C@@H]1O)c1cc(O)c(O)c(O)c1 (stereo in doubt) [Compound 5, 1,3,6-trigalloyl glucose] | > 50 | did not show any inhibitory effect | 226 | – | 7.228±0.279 mM AAE/mg and 7.23 mM AAE/mg | 1.119±0.116 mM TE/mg and 1.11 mM TE/mg | 9.640±0.061
2 | O=c1cc(-c2ccc(O)cc2)oc2cc(O[C@@H]3O[C@H](CO)[C@@H](O)[C@H](O)[C@H]3O)cc(O)c12 [Compound 1, apeginin-7-O-β-D-glucoside] | > 50 | – | 474 | 4.48 | 0.225±0.003 mM AAE/mg and 0.23 mM AAE/mg | 1.092±0.067 mM TE/mg and 1.09 mM TE/mg | 0.702±0.050
3 | C[C@@H]1O[C@@H](OC[C@H]2O[C@@H](Oc3c(-c4ccc(O)c(O)c4)oc4cc(O)cc(O)c4c3=O)[C@H](O)[C@@H](O)[C@@H]2O)[C@H](O)[C@H](O)[C@H]1O [Compound 4, rutin] | > 50 | – | 303 | – | 2.658±0.168 mM AAE/mg and 2.66 mM AAE/mg | 2.164±0.096 mM TE/mg and 2.16 mM TE/mg | 1.972±0.059

Continued, in another order:

Row | IC50 [1] [µM] | Pancreatic lipase inhibitory effect (in words) ([1]; till 50 μM concentration) | IC50 [3] [µM] | inhibition at 50 µM [1] [%] | SMILES | FRAP [2] | ORAC assay [4] | ABTS [5] [mM AAE/mg]
4 | > 50 | – | 1140 | 1.92 | O=C(O)[C@H]1O[C@@H](Oc2c(-c3ccc(O)c(O)c3)oc3cc(O)cc(O)c3c2=O)[C@H](O)[C@@H](O)[C@@H]1O [Compound 2, quercetin-3-O-β-D-glucuronic acid] | 0.727±0.021 mM AAE/mg and 0.73 mM AAE/mg | 0.739±0.098 mM TE/mg and 0.74 mM TE/mg | 0.646 ±0.072
5 | > 50 | – | > 1200 | 2.26 | O=C(O)[C@H]1O[C@@H](Oc2c(-c3ccc(O)c(O)c3)oc3cc(O)cc(O)c3c2=O)[C@H](O)[C@@H](O)[C@H]1O [Compound 3, quercetin-3-O-β-D-galacturonic acid] | 0.494±0.066 mM AAE/mg and 0.49 mM AAE/mg | 0.538±0.015 mM TE/mg and 0.54 mM TE/mg | 0.210 ±0.012
